In this assay the target is Huh7 (Homo sapiens). Kind of assay: Cytotoxicity against human Huh7 cell line containing HCV genotype 1b replicon. Background: Replicon systems follow genome replication, usually without infectious particles.

The IC50 is the concentration that inhibits the measured activity by half. A low value points to higher potency.

For the compound `O=C(O)[C@@H]1CCCN1S(=O)(=O)c1cc(Cl)c(Cl)c(Cl)c1O` [(S)-1-(3,4,5-trichloro-2-hydroxyphenylsulfonyl)pyrrolidine-2-carboxylic acid], the IC50 was more than 100 µM.

Values taken from BindingDB's records for doi:10.1021/jm060168g (Wyeth Research, 2006).
